Target: human orexin type 2 receptor (hOX2R) (Homo sapiens (Human), UniProt O43614)
Experiment: Measurement of orexin type 2 receptor agonist activity (Experimental Example 2-1, FLIPR TETRA, intracellular Ca2+)
Assay type: cell-based
Details: CHO dhfr- cells expressing hOX2R; for Emax at 30 µM: value at 30 uM concentration, orexin B as full agonist = 100%; for Emax: read-out: Emax (%)
[1] = agonist activity, 10 nM human orexin B = 100%

human orexin type 2 receptor (hOX2R), sequence (O43614 whole entry): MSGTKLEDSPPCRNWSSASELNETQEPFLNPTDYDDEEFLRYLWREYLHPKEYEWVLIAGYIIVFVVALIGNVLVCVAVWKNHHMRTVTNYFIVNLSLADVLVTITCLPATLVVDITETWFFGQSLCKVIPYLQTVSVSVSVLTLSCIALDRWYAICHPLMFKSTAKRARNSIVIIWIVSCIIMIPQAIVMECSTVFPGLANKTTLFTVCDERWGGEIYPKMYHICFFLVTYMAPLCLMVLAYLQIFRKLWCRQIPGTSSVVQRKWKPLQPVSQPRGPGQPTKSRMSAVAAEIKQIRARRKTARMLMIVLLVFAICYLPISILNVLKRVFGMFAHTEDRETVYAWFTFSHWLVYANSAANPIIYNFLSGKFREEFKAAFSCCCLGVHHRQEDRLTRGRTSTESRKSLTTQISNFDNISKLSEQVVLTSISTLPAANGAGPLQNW

Structure (SMILES): COC(=O)N1CCC[C@H](NS(C)(=O)=O)[C@@H]1CO[C@H]1CC[C@@H](c2cc(F)ccc2F)CC1 [Example 11, methyl (2R,3S)-2-(((cis-4-(2,5-difluorophenyl)cyclohexyl)oxy)methyl)-3-((methylsulfonyl)amino)piperidine-1-carboxylate]
- EC50 [1]: 2 nM
- Emax at 30 µM: 114%

Structure (SMILES): CC(=O)N1CCC[C@H](NS(C)(=O)=O)[C@@H]1CO[C@H]1CC[C@@H](C)CC1 (relative stereo) [Example 128, N-(cis-1-acetyl-2-(((cis-4-methylcyclohexyl)oxy)methyl)piperidin-3-yl)methanesulfonamide]
- EC50 (FLIPR TETRA, Fluo-4AM): 2400 nM
- Emax (FLIPR TETRA, Fluo-4AM): 88%

Structure (SMILES): CC(C)[C@H]1CC[C@@H](OC[C@H]2[C@@H](NS(C)(=O)=O)CCCN2C(=O)COc2ccccc2)CC1 (relative stereo) [Example 44, N-(cis-2-(((cis-4-isopropylcyclohexyl)oxy)methyl)-1-(phenoxyacetyl)piperidin-3-yl)methanesulfonamide]
- EC50 [1]: 1300 nM
- Emax at 30 µM: 96%

Structure (SMILES): CS(=O)(=O)N[C@H]1CCCN(C(=O)OCC(F)(F)F)[C@H]1CO[C@H]1CC[C@@H](c2cccc(F)c2)CC1 [Example 276, 2,2,2-trifluoroethyl (2R,3S)-2-(((cis-4-(3-fluorophenyl)cyclohexyl)oxy)methyl)-3-((methylsulfonyl)amino)piperidine-1-carboxylate]
- Emax (FLIPR TETRA, Fluo-4AM): 95%

Structure (SMILES): CS(=O)(=O)N[C@H]1CCCN[C@H]1CO[C@H]1CC[C@@H](c2c(F)ccc(F)c2F)CC1 [Example 21, N-((2R,3S)-2-(((cis-4-(2,3,6-trifluorophenyl)cyclohexyl)oxy)methyl)piperidin-3-yl)methanesulfonamide]
- EC50 [1]: 200 nM
- Emax at 30 µM: 108%

Structure (SMILES): CC(=O)N1CCC[C@H](NS(C)(=O)=O)[C@@H]1CO[C@H]1CC[C@@H](c2cc(F)ccc2F)CC1 [Example 217, N-((2R,3S)-1-acetyl-2-(((cis-4-(2,5-difluorophenyl)cyclohexyl)oxy)methyl)piperidin-3-yl)methanesulfonamide]
- EC50 (FLIPR TETRA, Fluo-4AM): 13 nM
- Emax (%) (FLIPR TETRA, Fluo-4AM): 110%

Structure (SMILES): COC(=O)N1CCC[C@H](NS(C)(=O)=O)[C@@H]1CO[C@H]1CC[C@@H](c2c(F)cccc2F)CC1 [Example 215, methyl (2R,3S)-2-(((cis-4-(2,6-difluorophenyl)cyclohexyl)oxy)methyl)-3-((methylsulfonyl)amino)piperidine-1-carboxylate]
- EC50 (FLIPR TETRA, Fluo-4AM): 2.5 nM
- Emax (FLIPR TETRA, Fluo-4AM): 105%

Structure (SMILES): CC(C)OC(=O)N1CCC[C@H](NS(C)(=O)=O)[C@@H]1CO[C@H]1C[C@@H](c2ccccc2)C1 (relative stereo) [Example 307, isopropyl cis-3-((methylsulfonyl)mino)-2-(((cis-3-phenylcyclobutyl)oxy)methyl)-piperidine-1-carboxylate]
- EC50 (FLIPR TETRA, Fluo-4AM): 1600 nM
- Emax (FLIPR TETRA, Fluo-4AM): 98%

Structure (SMILES): COc1cccc([C@H]2CC[C@@H](OC[C@@H]3NCCC[C@@H]3NS(C)(=O)=O)CC2)c1 (relative stereo) [Example 269, N-(cis-2-(((cis-4-(3-methoxyphenyl)cyclohexyl)oxy)methyl)piperidin-3-yl)methanesulfonamide]
- EC50 (FLIPR TETRA, Fluo-4AM): 3000 nM
- Emax (FLIPR TETRA, Fluo-4AM): 95%

Structure (SMILES): CCS(=O)(=O)N[C@H]1CCCN(C(=O)OC)[C@H]1CO[C@H]1CC[C@@H](c2ccccc2)CC1 (relative stereo) [Example 301, methyl cis-3-((ethylsulfonyl)amino)-2-(((cis-4-phenylcyclohexyl)oxy)methyl)-piperidine-1-carboxylate]
- EC50 (FLIPR TETRA, Fluo-4AM): 21 nM
- Emax (FLIPR TETRA, Fluo-4AM): 105%

Structure (SMILES): CC(=O)N1CCC[C@H](NS(C)(=O)=O)[C@@H]1CO[C@H]1CC[C@@H](c2cc(F)cc(F)c2F)CC1 [Example 243, N-((2R,3S)-1-acetyl-2-(((cis-4-(2,3,5-trifluorophenyl)cyclohexyl)oxy)methyl)piperidin-3-yl)methanesulfonamide]
- EC50 (FLIPR TETRA, Fluo-4AM): 17 nM
- Emax (FLIPR TETRA, Fluo-4AM): 97%

Structure (SMILES): CCNC(=O)N1CCC[C@H](NS(C)(=O)=O)[C@@H]1CO[C@H]1C[C@@H](c2ccc(C)cc2)C1 (relative stereo) [Example 192, cis-N-ethyl-2-(((cis-3-(4-methylphenyl)cyclobutyl)oxy)methyl)-3-((methylsulfonyl)amino)piperidine-1-carboxamide]
- EC50 (FLIPR TETRA, Fluo-4AM): 150 nM
- Emax (FLIPR TETRA, Fluo-4AM): 108%

Structure (SMILES): CS(=O)(=O)N[C@H]1CCCN(C(=O)OCC(F)(F)F)[C@H]1COC1CCN(c2ncccn2)CC1 [Example 305, 2,2,2-trifluoroethyl (2R,3S)-3-((methylsulfonyl)amino)-2-(((1-(pyrimidin-2-yl)piperidin-4-yl)oxy)methyl)piperidine-1-carboxylate]
- EC50 (FLIPR TETRA, Fluo-4AM): 53 nM
- Emax (%) (FLIPR TETRA, Fluo-4AM): 106%

Structure (SMILES): CS(=O)(=O)N[C@H]1CCCN(C(=O)C2CC2)[C@H]1CO[C@H]1CC[C@@H](c2ccccc2)CC1 [Example 31, N-((2R,3S)-1-(cyclopropylcarbonyl)-2-(((cis-4-phenylcyclohexyl)oxy)methyl)piperidin-3-yl)methanesulfonamide]
- EC50 [1]: 0.66 nM
- Emax at 30 µM: 95%

Structure (SMILES): CCC(=O)N1CCC[C@H](NS(C)(=O)=O)[C@@H]1CO[C@H]1CC[C@@H](c2ccccc2)CC1 [Example 182, N-((2R,3S)-2-(((cis-4-phenylcyclohexyl)oxy)methyl)-1-propionylpiperidin-3-yl)methanesulfonamide]
- EC50 (FLIPR TETRA, Fluo-4AM): 2.3 nM
- Emax (FLIPR TETRA, Fluo-4AM): 92%

Structure (SMILES): CS(=O)(=O)N[C@H]1CCCN(C(=O)C2CC2)[C@H]1CO[C@H]1CC[C@@H](c2ncccn2)CC1 (relative stereo) [Example 328, N-(cis-1-(cyclopropylcarbonyl)-2-(((cis-4-(pyrimidin-2-yl)cyclohexyl)oxy)methyl)piperidin-3-yl)methanesulfonamide]
- EC50 (FLIPR TETRA, Fluo-4AM): 7100 nM
- Emax (FLIPR TETRA, Fluo-4AM): 72%

Structure (SMILES): CC(=O)N1CCC[C@H](NS(C)(=O)=O)[C@@H]1CO[C@H]1CC[C@@H](c2c(C)cccc2C)CC1 (relative stereo) [Example 321, N-(cis-1-acetyl-2-(((cis-4-(2,6-dimethylphenyl)cyclohexyl)oxy)-methyl)piperidin-3-yl)methanesulfonamide]
- EC50 (FLIPR TETRA, Fluo-4AM): 2200 nM
- Emax (FLIPR TETRA, Fluo-4AM): 37%

Structure (SMILES): CCNC(=O)N1CCC[C@H](NS(C)(=O)=O)[C@@H]1CO[C@H]1CC[C@@H](c2cnn(C)c2)CC1 (relative stereo) [Example 137, cis-N-ethyl-2-(((cis-4-(1-methyl-1H-pyrazol-4-yl)cyclohexyl)oxy)methyl)-3-((methylsulfonyl)amino)piperidine-1-carboxamide]
- EC50 (FLIPR TETRA, Fluo-4AM): 240 nM
- Emax (FLIPR TETRA, Fluo-4AM): 101%

Structure (SMILES): COC(=O)N1CCC[C@H](NS(C)(=O)=O)[C@@H]1CO[C@H]1CC[C@@H](c2ccccc2C(F)(F)F)CC1 [Example 32, methyl (2R,3S)-3-((methylsulfonyl)amino)-2-(((cis-4-(2-(trifluoromethyl)phenyl)cyclohexyl)oxy)methyl)piperidine-1-carboxylate]
- EC50 [1]: 15 nM
- Emax at 30 µM: 102%

Structure (SMILES): COCC(=O)N1CCC[C@H](NS(C)(=O)=O)[C@@H]1CO[C@H]1CC[C@@H](c2ccccc2)CC1 (relative stereo) [Example 119, N-(cis-1-(methoxyacetyl)-2-(((cis-4-phenylcyclohexyl)oxy)methyl)piperidin-3-yl)methanesulfonamide]
- EC50 [1]: 30 nM
- Emax at 30 µM: 107%

Structure (SMILES): CC(=O)N1CCC[C@H](NS(=O)(=O)N(C)C)[C@@H]1CO[C@H]1CC[C@@H](c2ccccc2)CC1 (relative stereo) [Example 111, N′-(cis-1-acetyl-2-(((cis-4-phenylcyclohexyl)oxy)methyl)piperidin-3-yl)-N,N-dimethylsulfuric diamide]
- EC50 [1]: 13 nM
- Emax at 30 µM: 97%
